Experimental data reported in US20160046604A1, “HETEROARYL SUBSTITUTED INDAZOLES” (BAYER PHARMA AKTIENGESELLSCHAFT, priority 2013, published 2016).
Read-outs that look alike come from different tables or passages of the source.

Columns and labels:
[1] = test system: HeLa human cervical tumor cells; experiment: Proliferation assay (HeLa cell line); conditions: 96 h, read-out: Biological Assay 2: Proliferation assay (HeLa cell line) median IC50;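 further: crystal violet staining, absorbance at 595 nm, 0.001–10 µM test range, 4-day exposure, 0% is cell number at dosing and 100% untreated growth, IC50 from 4-parameter fit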
Protocol: Cultivated HeLa human cervical tumor cells (cells were ordered from ATCC CCL-2) were plated at a density of 3000 cells/well in a 96-well multititer plates in 200 microL DMEM/HAMS F12 culture medium (Biochrom F4815) supplemented with 10% fetal calf serum. After 24 hours, the cells of one plate (zero-point plate) were stained with crystal violet (see below), while the medium of the other plates was replaced by fresh culture medium (200 microL) containing the test substances in various concentrations (0 microM, as well as in the range of 0.001-10 microM; the final concentration of the solvent dimethyl sulfoxide was 0.5%). The cells were incubated for 4 days in the presence of test substances. Cell proliferation was determined by staining the cells with crystal violet: the cells were fixed by adding 20 microL/measuring point of an 11% glutaric aldehyde solution for 15 minutes at room temperature. After three washing cycles of the fixed cells with water, the plates were dried at room temperature. The cells were stained by adding 100 microL/measuring point of a 0.1% crystal violet solution (pH 3.0). After three washing cycles of the stained cells with water, the plates were dried at room temperature. The dye was dissolved by adding 100 microL/measuring point of a 10% acetic acid solution. Absorption was determined by photometry at a wavelength of 595 nm. The change of cell number, in percent, was calculated by normalization of the measured values to the absorption values of the zero-point plate (=0%) and the absorption of the untreated (0 microM) cells (=100%). The IC50 values were determined by means of a 4 parameter fit.

[2] = biological target: T1, catalytic domain of human Bub1 (amino acids 704-1085) (Homo sapiens, UniProt O43683); experiment: Bub1 kinase assay (TR-FRET); format: biochemical
T1 construct: catalytic domain of human Bub1 (amino acids 704-1085); His6 (N); made in house; host or cells: Hi5 insect cells
Protocol: To this end, 100-fold concentrated compound solutions (in DMSO) were previously prepared by serial dilution (1:3.4) of 2 mM stocks in a clear low volume 384-well source microtiter plate (Greiner Bio-One, Frickenhausen, Germany), from which 50 nL of compounds were transferred into a black low volume test microtiter plate from the same supplier. […] The resulting mixture (5 μL final volume) was incubated at 22° C. during 60 min., and the reaction was stopped by the addition of 5 μL of an aqueous EDTA-solution (50 mM EDTA, in 100 mM HEPES pH 7.5 and 0.2% (w/v) bovine serum albumin) which also contained the TR-FRET detection reagents (0.2 μM streptavidin-XL665 [Cisbio Bioassays, Codolet, France] and 1 nM anti-phoshoSerine antibody [Merck Millipore, cat. #35-001] and 0.4 nM LANCE EU-W1024 labeled anti-mouse IgG antibody [Perkin-Elmer, product no. AD0077, alternatively a Terbium-cryptate-labeled anti-mouse IgG antibody from Cisbio Bioassays can be used]). The stopped reaction mixture was further incubated 1 h at 22° C. in order to allow the formation of complexes between peptides and detection reagents. Subsequently, the amount of product was evaluated by measurement of the resonance energy transfer from the Eu-chelate-antibody complex recognizing the Phosphoserine residue to the streptavidin-XL665 bound to the biotin moiety of the peptide. […] IC50 values were calculated by fitting the normalized inhibition data to a 4-parameter logistic equation (Minimum, Maximum, IC50, Hill; Y=Max+(Min−Max)/(1+(X/IC50)Hill)).

[3] = TR-FRET, recombinant catalytic domain of human Bub1, ATP 10 μM, peptide substrate 1 μM, 60 min at 22° C., read-out: Biological Assay 1: Bub1 kinase assay median IC50

T1 sequence (O43683 704-1085): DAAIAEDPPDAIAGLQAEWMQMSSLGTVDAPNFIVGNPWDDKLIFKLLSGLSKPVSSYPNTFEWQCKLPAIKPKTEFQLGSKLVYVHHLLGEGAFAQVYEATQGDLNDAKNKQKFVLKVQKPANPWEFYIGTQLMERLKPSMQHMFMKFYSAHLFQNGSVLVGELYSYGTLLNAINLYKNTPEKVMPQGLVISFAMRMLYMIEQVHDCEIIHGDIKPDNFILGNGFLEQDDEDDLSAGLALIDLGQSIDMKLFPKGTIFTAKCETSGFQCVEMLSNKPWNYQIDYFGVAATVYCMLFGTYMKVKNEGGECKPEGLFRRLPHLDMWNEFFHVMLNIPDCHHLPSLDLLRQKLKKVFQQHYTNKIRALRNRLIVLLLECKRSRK

SMILES | IC50 [1] [µM] | IC50 [2] [µM] | IC50 [2, 3] [µM]
Cc1noc(C)c1Cn1nc(-c2nc(N)cc(Nc3ccncn3)n2)c2ccccc21 [Example 2-3-3, 2-{1-[(3,5-dimethyl-1,2-oxazol-4-yl)methyl]-1H-indazol-3-yl}-N-(pyrimidin-4-yl)pyrimidine-4,6-diamine] | 0.65 | 0.031 | –
Cc1noc(C)c1Cn1nc(-c2nc(Nc3ccncc3)cc(Nc3ccncc3)n2)c2ccccc21 [Example 2-3-4, 2-{1-[(3,5-dimethyl-1,2-oxazol-4-yl)methyl]-1H-indazol-3-yl}-N,N′-di(pyridin-4-yl)pyrimidine-4,6-diamine] | 4 | 0.33 | –
Cc1noc(C)c1Cn1nc(-c2nc(N)cc(Nc3ccncc3)n2)c2ccccc21 [Example 2-3-2, 2-{1-[(3,5-dimethyl-1,2-oxazol-4-yl)methyl]-1H-indazol-3-yl}-N-(pyridin-4-yl)pyrimidine-4,6-diamine] | 6.7 | 0.016 | –
COc1cnc(-c2nn(Cc3cc(=O)[nH]c(=O)[nH]3)c3ccccc23)nc1Nc1ccncc1 [Example 2-2-7, 6-({3-[5-methoxy-4-(pyridin-4-ylamino)pyrimidin-2-yl]-1H-indazol-1-yl}methyl)pyrimidine-2,4(1H,3H)-dione] | > 10 | 3.1 | –
COc1cnc(-c2nn(Cc3nnc(C)o3)c3ccccc23)nc1Nc1ccncc1C(N)=O [Example 2-2-13, 4-[(5-methoxy-2-{1-[(5-methyl-1,3,4-oxadiazol-2-yl)methyl]-1H-indazol-3-yl}pyrimidin-4-yl)amino]nicotinamide] | > 10 | 0.022 | –
COc1cnc(-c2nn(Cc3cscn3)c3ccccc23)nc1Nc1ccncc1C(N)=O [Example 2-2-11, 4-({5-methoxy-2-[1-(1,3-thiazol-4-ylmethyl)-1H-indazol-3-yl]pyrimidin-4-yl}amino)nicotinamide] | 8.8 | 0.008 | –
COc1cnc(-c2nn(Cc3cc(C(C)C)no3)c3ccccc23)nc1Nc1ccncc1C(N)=O [Example 2-2-9, 4-[(2-{1-[(3-isopropyl-1,2-oxazol-5-yl)methyl]-1H-indazol-3-yl}-5-methoxypyrimidin-4-yl)amino]nicotinamide] | 3.9 | 0.0069 | –
COc1cnc(-c2nn(Cc3cnn(C)c3C)c3ccccc23)nc1Nc1ccncc1 [Example 2-1-4, 2-{1-[(1,5-dimethyl-1H-pyrazol-4-yl)methyl]-1H-indazol-3-yl}-5-methoxy-N-(pyridin-4-yl)pyrimidin-4-amine] | > 10 | – | 0.042
CNC(=O)c1nc(Cn2nc(-c3ncc(OC)c(Nc4ccncc4)n3)c3ccccc32)no1 [Example 2-2-5, 3-({3-[5-methoxy-4-(pyridin-4-ylamino)pyrimidin-2-yl]-1H-indazol-1-yl}methyl)-N-methyl-1,2,4-oxadiazole-5-carboxamide] | > 10 | – | 0.54
COc1cnc(-c2nn(Cc3ncc(F)cc3F)c3ccccc23)nc1Nc1ccncc1 [Example 2-1-2, 2-{1-[(3,5-difluoropyridin-2-yl)methyl]-1H-indazol-3-yl}-5-methoxy-N-(pyridin-4-yl)pyrimidin-4-amine] | > 10 | 0.009 | –
COc1cnc(-c2nn(Cc3nnc(C)o3)c3ccccc23)nc1Nc1ccncc1 [Example 2-2-14, 5-methoxy-2-{1-[(5-methyl-1,3,4-oxadiazol-2-yl)methyl]-1H-indazol-3-yl}-N-(pyridin-4-yl)pyrimidin-4-amine] | > 10 | – | 0.87
COc1cnc(-c2nn(Cc3c(C)noc3C)c3ccccc23)nc1Nc1ccncc1 [Example 2-1-3, 2-{1-[(3,5-dimethyl-1,2-oxazol-4-yl)methyl]-1H-indazol-3-yl}-5-methoxy-N-(pyridin-4-yl)pyrimidin-4-amine] | > 10 | – | 0.03
COc1cnc(-c2nn(Cc3c(C)nnn3C(F)F)c3ccccc23)nc1N(Cc1c(C)nnn1C(F)F)c1ccncc1 [Example 2-1-9, N-{[1-(difluoromethyl)-4-methyl-1H-1,2,3-triazol-5-yl]methyl}-2-(1-{[1-(difluoromethyl)-4-methyl-1H-1,2,3-triazol-5-yl]methyl}-1H-indazol-3-yl)-5-methoxy-N-(pyridin-4-yl)pyrimidin-4-amine] | – | – | 0.79
CNC(=O)c1cnccc1Nc1nc(-c2nn(Cc3cc(C(C)C)no3)c3ccccc23)ncc1OC [Example 2-2-12, 4-[(2-{1-[(3-isopropyl-1,2-oxazol-5-yl)methyl]-1H-indazol-3-yl}-5-methoxypyrimidin-4-yl)amino]-N-methylnicotinamide] | > 10 | 0.0057 | –
COc1cnc(-c2nn(Cc3nsc(N)n3)c3ccccc23)nc1Nc1ccncc1 [Example 2-2-3, 2-{1-[(5-amino-1,2,4-thiadiazol-3-yl)methyl]-1H-indazol-3-yl}-5-methoxy-N-(pyridin-4-yl)pyrimidin-4-amine] | > 10 | – | 0.054
COc1cnc(-c2nn(Cc3c(C(F)(F)F)nnn3C)c3ccccc23)nc1Nc1ccncc1 [Example 2-1-8, 5-methoxy-2-(1-{[1-methyl-4-(trifluoromethyl)-1H-1,2,3-triazol-5-yl]methyl}-1H-indazol-3-yl)-N-(pyridin-4-yl)pyrimidin-4-amine] | > 10 | – | 0.61
COc1cnc(-c2nn(Cc3c(C(F)F)nn(C)c3OCC(F)(F)F)c3ccccc23)nc1Nc1ccncc1 [Example 2-1-7, 2-(1-{[3-(difluoromethyl)-1-methyl-5-(2,2,2-trifluoroethoxy)-1H-pyrazol-4-yl]methyl}-1H-indazol-3-yl)-5-methoxy-N-(pyridin-4-yl)pyrimidin-4-amine] | – | 0.45 | –
CNC(=O)c1cnccc1Nc1nc(-c2nn(Cc3nnc(C)o3)c3ccccc23)ncc1OC [Example 2-2-15, 4-[(5-methoxy-2-{1-[(5-methyl-1,3,4-oxadiazol-2-yl)methyl]-1H-indazol-3-yl}pyrimidin-4-yl)amino]-N-methylnicotinamide] | – | 0.099 | –
COc1cnc(-c2nn(Cc3cn4cccnc4n3)c3ccccc23)nc1Nc1ccncc1 [Example 2-2-6, 2-[1-(imidazo[1,2-a]pyrimidin-2-ylmethyl)-1H-indazol-3-yl]-5-methoxy-N-(pyridin-4-yl)pyrimidin-4-amine] | – | – | 1.6
COCc1noc(Cn2nc(-c3ncc(OC)c(Nc4ccncc4C(N)=O)n3)c3ccccc32)n1 [Example 2-2-10, 4-{[5-methoxy-2-(1-{[3-(methoxymethyl)-1,2,4-oxadiazol-5-yl]methyl}-1H-indazol-3-yl)pyrimidin-4-yl]amino}nicotinamide] | > 10 | 0.0048 | –
COc1cnc(-c2nn(Cc3c(Cl)ccnc3Cl)c3ccccc23)nc1Nc1ccncc1 [Example 2-1-1, 2-{1-[(2,4-dichloropyridin-3-yl)methyl]-1H-indazol-3-yl}-5-methoxy-N-(pyridin-4-yl)pyrimidin-4-amine] | 2.6 | 0.0084 | –
Cc1noc(C)c1Cn1nc(-c2nc(N)cc(Nc3ccncc3C(=O)NCCO)n2)c2ccccc21 [Example 2-4-1, 4-[(6-amino-2-{1-[(3,5-dimethyl-1,2-oxazol-4-yl)methyl]-1H-indazol-3-yl}pyrimidin-4-yl)amino]-N-(2-hydroxyethyl)nicotinamide] | – | 0.034 | –
CNC(=O)c1cnccc1Nc1nc(-c2nn(Cc3nc(COC)no3)c3ccccc23)ncc1OC [Example 2-2-8, 4-{[5-methoxy-2-(1-{[3-(methoxymethyl)-1,2,4-oxadiazol-5-yl]methyl}-1H-indazol-3-yl)pyrimidin-4-yl]amino}-N-methylnicotinamide] | > 10 | – | 0.017
COc1cnc(-c2nn(Cc3c(Cl)cnn3C)c3ccccc23)nc1Nc1ccncc1 [Example 2-2-1, 2-{1-[(4-chloro-1-methyl-1H-pyrazol-5-yl)methyl]-1H-indazol-3-yl}-5-methoxy-N-(pyridin-4-yl)pyrimidin-4-amine] | > 10 | – | 0.0089
COCc1noc(Cn2nc(-c3ncc(OC)c(Nc4ccncc4)n3)c3ccccc32)n1 [Example 2-2-4, 5-methoxy-2-(1-{[3-(methoxymethyl)-1,2,4-oxadiazol-5-yl]methyl}-1H-indazol-3-yl)-N-(pyridin-4-yl)pyrimidin-4-amine] | > 10 | – | 0.28
COc1cnc(-c2nn(Cc3c(C(F)(F)F)nn(C)c3C(F)F)c3ccccc23)nc1Nc1ccncc1 [Example 2-1-10, 2-(1-{[5-(difluoromethyl)-1-methyl-3-(trifluoromethyl)-1H-pyrazol-4-yl]methyl}-1H-indazol-3-yl)-5-methoxy-N-(pyridin-4-yl)pyrimidin-4-amine] | – | 3.2 | –
COc1cnc(-c2nn(Cc3c(C)nnn3C(F)F)c3ccccc23)nc1Nc1ccncc1 [Example 2-1-6, 2-(1-{[1-(difluoromethyl)-4-methyl-1H-1,2,3-triazol-5-yl]methyl}-1H-indazol-3-yl)-5-methoxy-N-(pyridin-4-yl)pyrimidin-4-amine] | – | – | 0.15
